US9586957B2, “2-keto amide derivatives as HIV attachment inhibitors” (priority 2013, dated 2017)
Where two headings read alike, the source gives them in different places.

Tested on: HIV-1 LAI
Experiment: Single-round infectious HIV-1 LAI envelope luciferase reporter virus infection of MT2 cells
Format: cell-based
Settings: Human immunodeficiency virus 1, MT2, 72 h
Excerpt: • Virus production—Human embryonic Kidney cell line, 293T (HEK 293T), was propagated in Dulbecco's Modified Eagle Medium (Invitrogen, Carlsbad, Calif.) containing 10% fetal bovine serum (FBS, Sigma, St. Louis, Mo.). The human T-cell leukemia cell MT2 (AIDS Research and Reference Reagent Program, Cat. 237) was propagated in RPMI 1640 (Invitrogen, Carlsbad, Calif.) containing 10% fetal bovine serum (FBS, Hyclone, Logan, Utah) • Virus infection—Single-round infectious reporter virus was produced by co-transfecting HEK 293T cells with plasmide expressing the HIV-1 LAI envelope along with a plasmid containing an HIV-1 LAI proviral cDNA with the envelope gene replaced by a firefly luciferase reporter gene (Chen et al., Ref 41). Transfections were performed using lipofectAMINE PLUS reagent as described by the manufacturer (Invitrogen, Carlsbad, Calif.). Experimental Procedure • 1. MT2 cells were plated in black, 384 well plates at a cell density of 5×10^3 cells per well in 25 μl RPMI 1640 containing 10% FBS. • 2. Compound (diluted in dimethylsulfoxide and growth medium) was added to cells at 12.5 μl/well, so that the final assay concentration would be ≦50 nM. • 3. 12.5 μl of single-round infectious reporter virus in Dulbecco's Modified Eagle
Medium was added to the plated cells and compound at an approximate multiplicity of infection (MOI) of 0.01, resulting in a final volume of 50 μl per well. • 4. Virus-infected cells were incubated at 37 degrees Celsius in a CO2 incubator and harvested 72 h after infection. • 5. Viral infection was monitored by measuring luciferase expression in the infected cells using a luciferase reporter gene assay kit (Steady-Glo, Promega, Madison, Wis.) as described by the manufacturer. Luciferase activity was then quantified by measuring luminescence using an EnVision Multilabel Plate Readers (PerkinElmer, Waltham, Mass.). • 6. The percent inhibition for each compound was calculated by quantifying the level of luciferase expression in cells infected in the presence of each compound as a percentage of that observed for cells infected in the absence of compound and subtracting such a determined value from 100. • 7. An EC50 provides a method for comparing the antiviral potency of the compounds of the invention. The effective concentration for fifty percent inhibition (EC50) was calculated with the Microsoft Excel Xlfit curve fitting software. For each compound, curves were generated from percent inhibition calculated at 10 different concentrations by using a four parameter logistic model (model 205). Table 1 is the key for the data in Table 2.

[1] = read-out: EC50 Group from Table 1

## O=C(C(=O)N1CCC(c2ccccc2)C1)c1c[nH]c2c(-n3ccnn3)ncc(F)c12 (centres unmarked) [Compound 1001]
  EC50: 38.1 nM
[1]
  EC50: < 500 nM

## O=C(C(=O)N1CCC[C@H](c2ccccc2)C1)c1c[nH]c2c(-n3ccnn3)ncc(F)c12 [Compound 1002]
[1]
  EC50: < 500 nM

## O=C(C(=O)N1CCCC(c2ccc(Cl)cc2)C1)c1c[nH]c2c(-n3ccnn3)ncc(F)c12 (centres unmarked) [Compound 1003]
[1]
  EC50: > 500 nM

## O=C(C(=O)N1CCCC(c2cccc(F)c2)C1)c1c[nH]c2c(-n3ccnn3)ncc(F)c12 (centres unmarked) [Compound 1004]
[1]
  EC50: > 500 nM

## O=C(C(=O)N1CCCC(Cc2ccccc2)C1)c1c[nH]c2c(-n3ccnn3)ncc(F)c12 (centres unmarked) [Compound 1005]
[1]
  EC50: > 500 nM

## O=C(C(=O)N1CCCC(c2ccccc2)CC1)c1c[nH]c2c(-n3ccnn3)ncc(F)c12 (centres unmarked) [Compound 1006]
[1]
  EC50: < 500 nM

## O=C(C(=O)N1CCC(Nc2ccccc2)C1)c1c[nH]c2c(-n3ccnn3)ncc(F)c12 (centres unmarked) [Compound 1007]
[1]
  EC50: < 500 nM

## COc1cnc(-n2cnc(C)n2)c2[nH]cc(C(=O)C(=O)N3CCC(=C(C#N)c4ccccc4)C3)c12 [Compound 1008]
  EC50: 18.9 nM
[1]
  EC50: < 500 nM

## O=C(C(=O)N1CCC(Oc2ccccc2)CC1)c1c[nH]c2c(-n3ccnn3)ncc(F)c12 [Compound 1009]
[1]
  EC50: < 500 nM

## O=C(C(=O)N1CCC(Nc2ccccc2)CC1)c1c[nH]c2c(-n3ccnn3)ncc(F)c12 [Compound 1010]
  EC50: 41.8 nM
[1]
  EC50: < 500 nM

## CCC(=O)N(c1ccccc1)C1CCN(C(=O)C(=O)c2c[nH]c3c(-n4ccnn4)ncc(F)c23)CC1 [Compound 1011]
[1]
  EC50: < 500 nM

## COc1ccnc2[nH]cc(C(=O)C(=O)N3CCC(Oc4ccccc4)CC3)c12 [Compound 1012]
[1]
  EC50: < 500 nM

## COc1ncc(OC)c2c(C(=O)C(=O)N3CCC(Oc4ccccc4)CC3)c[nH]c12 [Compound 1013]
[1]
  EC50: > 500 nM

## COc1ccnc2[nH]cc(C(=O)C(=O)N3CCC(Oc4ccc(Cl)cc4)CC3)c12 [Compound 1014]
  EC50: 757 nM
[1]
  EC50: > 500 nM

## COc1ncc(OC)c2c(C(=O)C(=O)N3CCC(Oc4ccc(Cl)cc4)CC3)c[nH]c12 [Compound 1015]
[1]
  EC50: > 500 nM

## O=C(C(=O)N1CCCC(Oc2ccccc2)C1)c1c[nH]c2cccc(F)c12 (centres unmarked) [Compound 1016]
[1]
  EC50: > 500 nM

## NC(=O)C1(Nc2ccccc2)CCN(C(=O)C(=O)c2c[nH]c3ccccc23)CC1 [Compound 1017]
[1]
  EC50: > 500 nM

## O=C(C(=O)N1CCC(Nc2cccc(S(=O)(=O)C(F)(F)F)c2)CC1)c1c[nH]c2ccccc12 [Compound 1018]
[1]
  EC50: > 500 nM

## O=C(C(=O)N1CCC(c2cccc(C(F)(F)F)c2)C(O)C1)c1c[nH]c2ccccc12 (centres unmarked) [Compound 1019]
[1]
  EC50: > 500 nM

## COc1ccc(OC2CN(C(=O)C(=O)c3c[nH]c4c(-n5ccnn5)ncc(F)c34)C2)cc1 [Compound 1020]
[1]
  EC50: < 500 nM

## COc1cnc(-n2cnc(C)n2)c2[nH]cc(C(=O)C(=O)N3CCc4ncn(-c5ccccc5)c4CC3)c12 [Compound 2001]
  EC50: 0.09 nM
[1]
  EC50: < 500 nM

## COc1cnc(-n2cnc(C)n2)c2[nH]cc(C(=O)C(=O)N3CCc4nn(-c5ccccc5)cc4C3)c12 [Compound 2002]
  EC50: 0.92 nM
[1]
  EC50: < 500 nM

## COc1cnc(-n2cnc(C)n2)c2[nH]cc(C(=O)C(=O)N3Cc4nn(-c5ccccc5)c(N)c4C3)c12 [Compound 2003]
[1]
  EC50: < 500 nM
